Measurements from publication PMC3775124 (Nuclear Medicine and Biology, 2013).
Values belong to the compound of their own block, whether it stands above or below them.

Columns and labels:
human BCRP = human BCRP (Homo sapiens, UniProt Q9UNQ0); details: [^14C]PhIP 2 μM; n = 1
Protocol: (§1) For the in vitro transport studies LLC-PK1 cells transduced with human MDR1 or murine Mdr1a and respective wild-type LLC cells were used. Additionally, Madin-Darby canine kidney type II (MDCK-II) cells transduced with murine Bcrp1 or human BCRP or human MRP1 and respective wild-type MDCK-II cells were used. The cell lines were a kind gift from Piet Borst and Alfred Schinkel (The Netherlands Cancer Institute, Amsterdam, the Netherlands). Culturing of the cells was performed as described earlier. MDR1- and Mdr1a-overexpressing LLC cells were regularly tested for vincristine sulfate resistance (0.64 μM) as described before. The MDCK-II cells transduced with Bcrp1 or BCRP were regularly tested for mitoxantrone resistance (20 μM).
(§2) CETA was performed in triplicate as described previously. With a density of 0.3 × 10^6 cells/cm^2 LLC cells were seeded on transparent polyester membrane filters (Transwell-Clear®, 6-well, 24-mm diameter, 0.4-μm pore size, Corning Costar Corporation, Cambridge, MA, USA). […] Transport experiments were performed 5–7 days after the cells reached 100% confluence. […] Control CETA was performed with calcein AM (1 μM) for MRP1 [26] and [^14C]PhIP (2 μM) for Bcrp1/BCRP. The membrane integrity was determined by mannitol diffusion and transepithelial electrical resistance (TEER), with criteria for exclusion described earlier.

murine Bcrp1 = murine Bcrp1 (Mus musculus, UniProt Q7TMS5); details: [^14C]PhIP 2 μM; n = 1
Sequence of murine Bcrp1 (Q7TMS5 whole entry): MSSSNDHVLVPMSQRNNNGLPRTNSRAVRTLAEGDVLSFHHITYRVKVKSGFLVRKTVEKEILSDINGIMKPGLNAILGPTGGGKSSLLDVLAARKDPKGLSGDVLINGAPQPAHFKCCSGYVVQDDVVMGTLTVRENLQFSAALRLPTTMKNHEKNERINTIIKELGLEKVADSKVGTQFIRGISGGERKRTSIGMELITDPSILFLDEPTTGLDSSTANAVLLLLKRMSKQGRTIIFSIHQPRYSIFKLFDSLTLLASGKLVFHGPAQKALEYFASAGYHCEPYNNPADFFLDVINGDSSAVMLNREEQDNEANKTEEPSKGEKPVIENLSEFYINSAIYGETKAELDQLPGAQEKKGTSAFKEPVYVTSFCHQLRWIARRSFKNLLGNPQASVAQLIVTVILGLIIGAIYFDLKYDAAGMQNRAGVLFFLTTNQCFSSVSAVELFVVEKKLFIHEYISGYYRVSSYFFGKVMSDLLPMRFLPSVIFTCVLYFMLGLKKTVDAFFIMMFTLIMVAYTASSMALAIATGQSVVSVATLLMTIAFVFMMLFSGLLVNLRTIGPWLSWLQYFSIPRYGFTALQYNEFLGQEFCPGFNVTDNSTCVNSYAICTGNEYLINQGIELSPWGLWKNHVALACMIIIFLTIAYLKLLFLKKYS
Protocol: as §1, §2

murine Mdr1a = molecular target: T1, murine Mdr1a (Mus musculus, UniProt P21447); experiment: CETA in LLC cells transduced with murine Mdr1a; assay type: in vitro ADME; details: tariquidar 0.5 μM; Mdr1a-overexpressing LLC cells
T1 construct: host or cells: LLC-PK1 (porcine kidney) cells
T1 sequence (P21447 whole entry): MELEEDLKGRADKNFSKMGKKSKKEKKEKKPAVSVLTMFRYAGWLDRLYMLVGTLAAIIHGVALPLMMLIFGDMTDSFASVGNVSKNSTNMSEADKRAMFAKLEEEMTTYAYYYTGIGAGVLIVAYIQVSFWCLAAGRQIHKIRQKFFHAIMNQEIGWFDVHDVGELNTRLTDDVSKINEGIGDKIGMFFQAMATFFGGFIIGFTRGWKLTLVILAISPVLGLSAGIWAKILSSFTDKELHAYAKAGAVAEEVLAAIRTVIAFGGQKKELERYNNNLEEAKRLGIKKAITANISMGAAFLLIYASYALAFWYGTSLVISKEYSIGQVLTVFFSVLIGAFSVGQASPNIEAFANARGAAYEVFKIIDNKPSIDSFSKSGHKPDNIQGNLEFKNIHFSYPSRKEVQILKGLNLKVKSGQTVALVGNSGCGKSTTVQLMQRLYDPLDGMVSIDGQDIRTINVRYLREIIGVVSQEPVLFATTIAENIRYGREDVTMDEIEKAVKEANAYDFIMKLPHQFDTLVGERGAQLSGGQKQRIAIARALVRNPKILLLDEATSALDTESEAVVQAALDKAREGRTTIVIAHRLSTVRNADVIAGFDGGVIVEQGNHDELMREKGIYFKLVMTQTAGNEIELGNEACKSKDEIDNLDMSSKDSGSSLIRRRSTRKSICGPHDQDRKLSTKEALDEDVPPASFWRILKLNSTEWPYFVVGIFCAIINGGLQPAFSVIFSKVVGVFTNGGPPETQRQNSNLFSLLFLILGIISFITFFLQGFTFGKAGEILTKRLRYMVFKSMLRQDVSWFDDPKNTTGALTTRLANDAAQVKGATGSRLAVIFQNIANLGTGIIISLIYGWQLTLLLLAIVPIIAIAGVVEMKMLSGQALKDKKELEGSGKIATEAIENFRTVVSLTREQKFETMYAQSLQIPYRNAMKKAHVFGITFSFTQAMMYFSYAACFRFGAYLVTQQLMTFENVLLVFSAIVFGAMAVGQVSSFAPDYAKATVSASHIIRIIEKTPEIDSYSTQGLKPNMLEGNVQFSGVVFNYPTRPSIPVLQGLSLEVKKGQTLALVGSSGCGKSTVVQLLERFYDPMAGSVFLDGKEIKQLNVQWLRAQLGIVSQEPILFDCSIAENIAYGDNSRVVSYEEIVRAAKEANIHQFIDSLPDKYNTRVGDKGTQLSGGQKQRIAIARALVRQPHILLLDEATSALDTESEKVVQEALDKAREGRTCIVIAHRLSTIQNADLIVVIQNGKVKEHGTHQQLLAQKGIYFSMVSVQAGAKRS

[1] = set-up: method as in PMID 19910428; details: cited from earlier work
cerebral Pgp = test system: cerebral Pgp; set-up: method as in PMID 20016890; details: tariquidar 15 mg/kg; rats; cited from earlier work
human MRP1 = human MRP1 (Homo sapiens, UniProt P33527); experiment: CETA in MDCK cells transduced with human MRP1; details: calcein AM 1 μM; n = 1
Sequence of human MRP1 (P33527 whole entry): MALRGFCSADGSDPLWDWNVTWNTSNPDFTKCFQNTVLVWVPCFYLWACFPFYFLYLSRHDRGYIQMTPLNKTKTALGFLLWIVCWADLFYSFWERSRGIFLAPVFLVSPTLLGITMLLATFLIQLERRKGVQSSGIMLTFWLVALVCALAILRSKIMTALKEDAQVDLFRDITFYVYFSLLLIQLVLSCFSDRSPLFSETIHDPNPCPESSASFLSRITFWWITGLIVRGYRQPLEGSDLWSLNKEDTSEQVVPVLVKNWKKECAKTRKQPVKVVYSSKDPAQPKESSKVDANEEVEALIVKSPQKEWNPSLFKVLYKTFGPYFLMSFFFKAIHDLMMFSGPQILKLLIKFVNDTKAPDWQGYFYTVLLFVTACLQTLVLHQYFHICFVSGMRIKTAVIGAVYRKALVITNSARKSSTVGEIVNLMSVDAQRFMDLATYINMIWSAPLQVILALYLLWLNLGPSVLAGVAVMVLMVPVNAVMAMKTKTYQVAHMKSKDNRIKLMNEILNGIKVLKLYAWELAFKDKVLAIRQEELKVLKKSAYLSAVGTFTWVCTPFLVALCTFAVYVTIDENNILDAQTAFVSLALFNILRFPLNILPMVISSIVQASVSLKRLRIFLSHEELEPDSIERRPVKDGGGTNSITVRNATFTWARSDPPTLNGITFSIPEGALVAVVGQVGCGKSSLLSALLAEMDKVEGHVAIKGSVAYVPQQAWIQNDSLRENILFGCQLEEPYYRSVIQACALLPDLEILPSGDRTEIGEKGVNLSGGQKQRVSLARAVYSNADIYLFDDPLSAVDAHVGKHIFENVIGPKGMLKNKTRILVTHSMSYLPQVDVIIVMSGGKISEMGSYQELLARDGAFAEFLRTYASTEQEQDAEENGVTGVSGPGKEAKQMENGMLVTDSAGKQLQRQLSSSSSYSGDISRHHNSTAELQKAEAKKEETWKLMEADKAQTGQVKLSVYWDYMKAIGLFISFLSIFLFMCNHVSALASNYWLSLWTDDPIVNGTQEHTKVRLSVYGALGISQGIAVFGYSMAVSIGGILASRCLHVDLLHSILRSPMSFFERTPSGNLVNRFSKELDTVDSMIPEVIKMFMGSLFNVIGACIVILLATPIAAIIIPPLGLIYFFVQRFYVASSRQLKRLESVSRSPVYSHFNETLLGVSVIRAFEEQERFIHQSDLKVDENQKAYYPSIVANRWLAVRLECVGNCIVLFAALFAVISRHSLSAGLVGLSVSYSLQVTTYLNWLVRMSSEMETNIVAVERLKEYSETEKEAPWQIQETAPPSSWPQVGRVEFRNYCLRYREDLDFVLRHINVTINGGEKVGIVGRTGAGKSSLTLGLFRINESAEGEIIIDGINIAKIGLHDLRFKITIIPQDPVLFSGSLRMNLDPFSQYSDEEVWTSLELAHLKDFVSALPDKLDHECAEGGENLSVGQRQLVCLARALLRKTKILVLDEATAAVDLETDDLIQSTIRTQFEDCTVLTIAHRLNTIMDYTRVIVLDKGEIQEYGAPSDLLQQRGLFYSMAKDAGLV
Protocol: as §1, §2

Sequence of human BCRP (Q9UNQ0 whole entry): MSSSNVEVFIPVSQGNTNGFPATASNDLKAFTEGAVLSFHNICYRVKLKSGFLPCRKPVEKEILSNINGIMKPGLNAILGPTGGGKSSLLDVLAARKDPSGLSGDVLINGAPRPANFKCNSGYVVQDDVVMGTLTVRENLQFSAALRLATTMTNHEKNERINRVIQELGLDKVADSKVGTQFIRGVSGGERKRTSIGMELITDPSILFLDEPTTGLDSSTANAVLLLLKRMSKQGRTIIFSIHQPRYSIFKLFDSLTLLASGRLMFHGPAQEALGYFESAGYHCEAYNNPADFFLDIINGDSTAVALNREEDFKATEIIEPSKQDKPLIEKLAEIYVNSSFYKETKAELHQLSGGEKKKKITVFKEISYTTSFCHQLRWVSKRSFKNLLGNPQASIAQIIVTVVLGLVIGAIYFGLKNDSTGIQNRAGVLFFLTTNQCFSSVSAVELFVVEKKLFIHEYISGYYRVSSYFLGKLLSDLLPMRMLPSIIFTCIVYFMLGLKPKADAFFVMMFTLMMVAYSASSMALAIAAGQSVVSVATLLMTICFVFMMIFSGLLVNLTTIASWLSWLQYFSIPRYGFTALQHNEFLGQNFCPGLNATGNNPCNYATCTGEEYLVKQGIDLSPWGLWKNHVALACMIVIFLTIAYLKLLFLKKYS

Compound: Cn1c(N)nc2ncc(-c3ccccc3)cc21 [[^14C]PhIP, [^14C]2-amino-1-methyl-6-phenylimidazo[4,5-b]pyridine]
control CETA for BCRP function (human BCRP): functional
control CETA for Bcrp1 function (murine Bcrp1): functional

inhibition of [^3H]verapamil transport (murine Mdr1a): almost completely inhibited
Compound: COc1cc2c(cc1OC)CN(CCc1ccc(NC(=O)c3cc(OC)c(OC)cc3NC(=O)c3cnc4ccccc4c3)cc1)CC2 [tariquidar, Tariquidar dimesylate]
influence on (R)-[^11C]verapamil metabolism and plasma protein binding [1]: does not influence
inhibition of cerebral Pgp (cerebral Pgp): complete inhibition

Compound: calcein AM
control CETA for MRP1 function (human MRP1): functional MRP1 was present
